Laboratory results published in the supplement of paper PMC10307832.

Tests used:
Experiment in all cases: relative viability (nuclei count vs DMSO), 5 days (fraction); higher = more cells survive
[1] = compound: COC1=CC=C(C=C1)COC2=C(C=C(C=C2)CC3=CN=C(N=C3N)N)OC [GW-2580]
Method in brief: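 Five library-drug doses spaced by √10 were pinned onto vehicle-anchored 1536-well plates of lung cancer cell lines that had been kept overnight at 37 °C. Cells went 5 days without medium change, then were fixed, permeabilised and Hoechst-stained together, imaged at 4× and counted by MetaXpress. Viability is the ratio of treated-well to vehicle-well nuclei, taken as a median over plates. Plates required control CV below 25% and at least one doubling.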

[2] = compound: Cc1cnc(Nc2ccc(OCCN3CCCC3)cc2)nc1Nc1cccc(S(=O)(=O)NC(C)(C)C)c1 [Fedratinib] + C[C@@H](Oc1cc(-c2cnn(C3CCNCC3)c2)cnc1N)c1c(Cl)ccc(F)c1Cl [Crizotinib] (partner 1 µM)
Method in brief: (§1)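 Lung cancer cell lines in 1536-well plates got either a single drug or a fixed anchor-drug dose together with five library-drug doses (not always all listed) in √10 steps, by pin tool, on the day after seeding. Nuclei were counted after 5 days, and relative viability is the treated-to-vehicle ratio of nuclei counts. Values are medians of duplicate plates.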

[3] = compound: COC1=CC=C(C=C1)COC2=C(C=C(C=C2)CC3=CN=C(N=C3N)N)OC [GW-2580] + Cc1nc(NC(=O)N2CCC[C@H]2C(N)=O)sc1-c1ccnc(C(C)(C)C(F)(F)F)c1 [Alpelisib] (partner 2 µM)
Method in brief: as §1

[4] = compound: COC1=CC=C(C=C1)COC2=C(C=C(C=C2)CC3=CN=C(N=C3N)N)OC [GW-2580] + Cc1nc(Nc2ncc(C(=O)Nc3c(C)cccc3Cl)s2)cc(N2CCN(CCO)CC2)n1 [Dasatinib] (partner 0.075 µM)
Method in brief: as §1

[5] = compound: Cc1cnc(Nc2ccc(OCCN3CCCC3)cc2)nc1Nc1cccc(S(=O)(=O)NC(C)(C)C)c1 [Fedratinib] + COc1cc2c(Oc3ccc(NC(=O)C4(C(=O)Nc5ccc(F)cc5)CC4)cc3F)ccnc2cc1OCCCN1CCOCC1 [Foretinib] (partner 0.25 µM)
Method in brief: as §1

Cell Line | relative viability ([1]; 0.08 µM) | relative viability ([1]; 0.8 µM) | relative viability ([1]; 2.53 µM) | relative viability ([1]; 8 µM) | relative viability ([2]; first compound 0.1 µM) | relative viability ([2]; first compound 0.3162 µM) | relative viability ([2]; first compound 1 µM) | relative viability ([3]; first compound 0.08 µM) | relative viability ([3]; first compound 0.8 µM) | relative viability ([3]; first compound 2.53 µM) | relative viability ([3]; first compound 8 µM) | relative viability ([4]; first compound 0.08 µM) | relative viability ([4]; first compound 0.8 µM) | relative viability ([4]; first compound 2.53 µM) | relative viability ([4]; first compound 8 µM) | relative viability ([5]; first compound 0.1 µM) | relative viability ([5]; first compound 0.3162 µM) | relative viability ([5]; first compound 1 µM)
HCC-15 | 1.08 | 1.19 | 0.98 | 1.02 | 0.839 | 0.762 | 0.71 | 0.915 | 0.894 | 0.87 | 0.82 | 0.639 | 0.73 | 0.629 | 0.578 | 1.02 | 1.01 | 0.86
HCC-44 | 0.981 | 1.03 | 0.896 | 1.01 | 0.797 | 0.756 | 0.85 | 0.863 | 0.759 | 0.691 | 0.775 |  |  |  |  |  |  | 
HCC-78 | 0.95 | 1.21 | 0.675 | 0.933 | 0.346 |  | 0.305 | 0.368 | 0.363 | 0.28 | 0.304 | 0.322 | 0.467 | 0.286 | 0.298 | 0.504 | 0.548 | 0.509
HCC-366 | 0.997 | 1.06 | 1.11 | 1.07 | 0.21 | 0.5 | 0.416 | 0.367 | 0.575 | 0.43 | 0.355 | 0.711 | 0.759 | 0.603 | 0.563 | 0.918 | 0.922 | 0.911
HCC-827 | 1.06 | 1.05 | 1.04 | 0.965 | 0.985 | 0.963 | 0.953 | 1.15 | 0.923 | 0.902 | 0.915 | 0.309 | 0.413 | 0.283 | 0.245 | 1.03 | 1.07 | 0.96
HOP-62 | 1.06 | 1.12 | 0.982 | 1.03 | 0.786 | 0.891 | 0.784 | 0.914 | 1.01 | 0.694 | 1.07 | 0.756 | 0.728 | 0.639 | 0.697 | 1.1 | 0.982 | 0.959
IA-LM | 0.849 | 1.1 | 0.913 | 0.936 | 0.805 | 0.589 | 0.736 | 1.11 | 0.725 | 0.656 | 0.883 |  |  |  |  | 1.15 | 1.23 | 1.12
LC-2-ad | 1.04 | 1.14 | 1.01 | 0.988 | 0.474 | 0.444 | 0.446 | 0.934 | 0.932 | 0.875 | 0.87 | 0.715 | 0.771 | 0.737 | 0.55 | 1.02 | 1.01 | 0.784
